pEC50, pIC50: −log10 of the molar value. Structures can show the parent of a compound that is named as a salt. Where two headings read alike, the source gives them in different places.
Key:
[1] = system: MCP-1 production in influenza virus-infected U937 cells (H1N1); experiment: cells; type: cell-based
[2] = system: U937 cells
[3] = system: IL-8 production in influenza virus-infected U937 cells (H1N1); experiment: cells; type: cell-based, Human
[4] = system: IP-10 production in influenza virus-infected U937 cells (H1N1); experiment: cells; type: cell-based
[5] = in vitro; details: human
[6] = secondary screen, Supplemental Table 1, read-out: EC50 MCP-1
[7] = secondary screen, Supplemental Table 1
[8] = secondary screen, Supplemental Table 1, read-out: EC50 IL-8
[9] = secondary screen, Supplemental Table 1, read-out: EC50 IP-10
[10] = Homo sapiens, U-937, read-out: EC50 MCP-1
[11] = CC50, secondary screen, Supplemental Table 1
[12] = Homo sapiens, U-937, secondary screen, Supplemental Table 1, read-out: EC50 IL-8
[13] = Homo sapiens, U-937, read-out: EC50 IP-10
[14] = Homo sapiens, U-937, secondary screen, Supplemental Table 1, read-out: EC50 MCP-1
[15] = Homo sapiens, U-937, secondary screen, Supplemental Table 1, read-out: EC50 IP-10
[16] = Homo sapiens, U-937, read-out: EC50 IL-8

| Compound | pEC50 [1, 6] | CC50 [2, 7] | pEC50 [3, 8] | pEC50 [4, 9] | CC50 [5, 11] | pEC50 [3, 12] | pEC50 [1, 14] | pEC50 [4, 15] | also measured |
| --- | --- | --- | --- | --- | --- | --- | --- | --- | --- |
| C=CC(=O)Nc1ccc(CN2C(=O)N(c3cc(OC)cc(OC)c3)Cc3cnc(Nc4ccc(N5CCN(C)CC5)cc4)nc32)cc1 [FIIN-2] | 6.85 | 16700 nM | 7.52 | 6.49 |  |  |  |  |  |
| CN1CCN(c2cccc(Nc3nc4c(-c5ccc(S(C)(=O)=O)cc5)cccn4n3)c2)CC1 [CEP-33779] | 6.62 | 10500 nM | 6.44 | 6.66 |  |  |  |  |  |
| Cc1ccc(NC(=O)c2ccc(CN3CC[C@H](N(C)C)C3)c(C(F)(F)F)c2)cc1Nc1nccc(-c2cncnc2)n1 [Bafetinib (INNO-406), Bafetinib] |  |  |  |  | 100000 nM | 6.23 |  |  | pEC50 [1, 10]: 6.07; pEC50 [4, 13]: 6.39 |
| C=CC(=O)Nc1cccc(Oc2nc(Nc3ccc(N4CCN(C)CC4)cc3)ncc2Cl)c1 [WZ3146] | > 8.30 |  | 8.00 | 6.17 |  |  |  |  | CC50 [2]: 14000 nM |
| O=C(Nc1cccc(Nc2ncc(Br)c(NCCc3cnc[nH]3)n2)c1)N1CCCC1 [BX-912] | 6.44 | > 100000 nM | 6.39 | 5.98 |  |  |  |  |  |
| S-Ruxolitinib [S-Ruxolitinib (INCB018424)] |  |  |  |  |  |  |  |  | pEC50 ([1]; read-out: EC50 MCP-1): 7.22; pEC50 ([3]; read-out: EC50 IL-8): 7.52; pEC50 ([4]; read-out: EC50 IP-10): 7.10 |
| NC(=O)Nc1sc(-c2ccc(F)cc2)cc1C(N)=O [TPCA-1] | 6.92 | 11000 nM | 6.55 | 7.15 |  |  |  |  |  |
| Cc1cc(Nc2nc(N[C@@H](C)c3ccc(F)cc3)c(C#N)cc2F)n[nH]1 [AZ 960] |  |  |  |  | 6000 nM | > 8.30 |  |  | pEC50 [1, 10]: > 8.30; pEC50 [4, 13]: 8.00 |
| CNS(=O)(=O)C[C@H]1CC[C@H](N(C)c2ncnc3[nH]ccc23)CC1 [Oclacitinib] |  |  |  |  | 50000 nM | 7.30 |  |  | pEC50 [1, 10]: 6.72; pEC50 [4, 13]: 6.74 |
| C[C@@H](Oc1ccc2[nH]nc(/C=C/c3cnn(CCO)c3)c2c1)c1c(Cl)cncc1Cl [LY2874455] |  |  |  |  | 3400 nM | > 8.30 | > 8.30 | > 8.30 |  |
| O=C(Nc1cc(C(F)(F)F)cc(C(F)(F)F)c1)c1cc(Cl)ccc1O [IMD 0354] |  |  |  |  |  | 7.70 | 7.22 | 7.10 | CC50 [5]: 1100 nM |
| C[C@@H]1CCN(C(=O)CC#N)C[C@@H]1N(C)c1ncnc2[nH]ccc12 [Tofacitinib (CP-690550) Citrate] |  | > 100000 nM |  |  |  |  |  |  |  |
| CC#CC(=O)Nc1ccc2ncnc(Nc3cccc(Br)c3)c2c1 [CL-387785 (EKI-785)] | 6.19 | 7090 nM | 6.38 | 6.39 |  |  |  |  |  |
| COc1cc(Nc2ncc(F)c(Nc3ccc4c(n3)N(COP(=O)(O)O)C(=O)C(C)(C)O4)n2)cc(OC)c1OC [Fostamatinib (R788), Fostamatinib] |  |  |  |  | 40000 nM | 6.47 | 6.77 | 6.30 |  |
| Cc1c[nH]c2nc(Nc3ccc(N4CCN(C)CC4)c(F)c3)nc(-c3cccc(CC#N)c3)c12 [SGI-7079] | > 8.30 | 3850 nM | > 8.30 | > 8.30 |  |  |  |  |  |
| NC(=O)c1cnc2[nH]ccc2c1N[C@@H]1[C@@H]2CC3C[C@H]1C[C@@](O)(C3)C2 [Peficitinb (ASP015K, JNJ-54781532), Peficitinb] | 8.00 | 34700 nM |  | 7.70 |  |  |  |  |  |
| COc1cc(Nc2ncc(F)c(Nc3ccc4c(n3)NC(=O)C(C)(C)O4)n2)cc(OC)c1OC [R406 (free base)] | 5.95 | > 100000 nM | 5.56 | 6.15 |  |  |  |  |  |
| CC(C)(C)c1cc(C=C(C#N)C#N)cc(C(C)(C)C)c1O [Tyrphostin 9] | 7.10 | 8260 nM | 7.40 | 7.05 |  |  |  |  |  |

| Compound | pEC50 [1, 6] | CC50 [2, 7] | pEC50 [3, 8] | pEC50 [4, 9] | CC50 [5, 11] | pEC50 [3, 12] | pEC50 [1, 14] | pEC50 [4, 15] | also measured |
| --- | --- | --- | --- | --- | --- | --- | --- | --- | --- |
| N#CC[C@H](C1CCCC1)n1cc(-c2ncnc3[nH]ccc23)cn1 [Ruxolitinib (INCB018424), Ruxolitinib] |  |  |  |  |  |  | 7.52 | 7.15 | CC50 ([5]; CC50): 100000 nM; pEC50 [3, 16]: 6.92 |
| CNC(=O)c1cc(Oc2ccc(NC(=O)Nc3ccc(Cl)c(C(F)(F)F)c3)c(F)c2)ccn1 [Regorafenib (BAY 73-4506), Regorafenib] |  |  |  |  | 20000 nM | 6.21 | 5.77 | 5.74 |  |
| CCOc1cc2ncc(C#N)c(Nc3ccc(F)c(Cl)c3)c2cc1NC(=O)/C=C/CN(C)C [Pelitinib (EKB-569), Pelitinib] |  |  |  |  | 1700 nM |  | 7.70 | 6.89 |  |
| C[C@@H]1CCN(C(=O)CC#N)C[C@@H]1N(C)c1ncnc2[nH]ccc12 [Tofacitinib] |  |  |  |  |  |  |  |  | CC50 ([5]; CC50): > 100000 nM |
| Cc1ccc(C(=O)Nc2ccc(CN3CCN(C)CC3)c(C(F)(F)F)c2)cc1C#Cc1cnc2[nH]ncc2c1 [GZD824] |  |  |  |  | 4800 nM | > 8.30 | > 8.30 | > 8.30 |  |
| COc1cc(Nc2ncc(F)c(Nc3ccc4c(n3)N(COP(=O)(O)O)C(=O)C(C)(C)O4)n2)cc(OC)c1OC [R788 (Fostamatinib) Disodium] | 6.80 | 7400 nM | 7.22 | 6.41 |  |  |  |  |  |
| Cc1ccc(-n2nc(C(C)(C)C)cc2NC(=O)Nc2ccc(OCCN3CCOCC3)c3ccccc23)cc1 [BIRB 796, Doramapimod] |  |  |  |  |  | 5.28 |  |  | pEC50 [1, 10]: 5.00; pIC50 ([1]; Homo sapiens, U-937, read-out: IC50 MCP-1): 5.00; CC50 [5]: > 100000 nM; pIC50 ([3]; Homo sapiens, U-937): 5.28; pEC50 [4, 13]: 5.04 |
| Cc1cc(Nc2ncc3c(n2)N(C)C(=O)N(c2cc(NC(=O)c4cccc(C(F)(F)F)c4)ccc2C)C3)n(C)n1 [SC1] | 7.40 | > 100000 nM | > 8.30 | 8.00 |  |  |  |  |  |
| C=CC(=O)Nc1cccc(Nc2nc(Nc3ccc(Oc4ccnc(C(=O)NC)c4)cc3)ncc2F)c1 [CNX-774] | 6.80 | 15500 nM | 8.00 | 5.84 |  |  |  |  |  |
| O=C(c1ccc(Nc2nccc(-c3cc4ccccc4s3)n2)cc1)N1CCC(N2CCCC2)CC1 [IKK-16 (IKK Inhibitor VII)] | > 8.30 | 8900 nM | > 8.30 | > 8.30 |  |  |  |  |  |
| CC(C)n1nc(-c2ccc3oc(N)nc3c2)c2c(N)ncnc21 [INK 128 (MLN0128)] | 7.40 | 5900 nM |  | 6.92 |  |  |  |  |  |
| Cc1ccc(NC(=O)c2cccc(C(C)(C)C#N)c2)cc1Nc1ccc2ncn(C)c(=O)c2c1 [AZ 628] | 6.74 | > 100000 nM | 7.00 | 6.01 |  |  |  |  |  |
| N#CCNC(=O)c1ccc(-c2ccnc(Nc3ccc(N4CCOCC4)cc3)n2)cc1 [CYT387] |  |  |  |  | 5400 nM | 6.52 | 7.52 | 6.32 |  |
| CCN(CC)CCNC(=O)c1c(C)[nH]c(/C=C2\C(=O)Nc3ccc(F)cc32)c1C [Sunitinib Malate] |  |  |  |  | 24900 nM | 7.30 | 6.46 | 6.18 |  |
| C=CC(=O)N1CCC(Oc2cc3c(Nc4ccc(Cl)c(Cl)c4F)ncnc3cc2OC)CC1 [Poziotinib (HM781-36B), Poziotinib] |  |  |  |  | 24100 nM | 6.47 | 6.18 | 6.24 |  |
| CCS(=O)(=O)N1CCN(c2ccc(Nc3ncc(C(N)=O)c(NC4CC4)n3)cc2)CC1 [Cerdulatinib (PRT062070, PRT2070), Cerdulatinib] |  |  |  |  | 3500 nM | > 8.30 | 7.70 | 7.30 |  |
| Cn1c(=O)c(F)c(Nc2ccc(I)cc2F)c2c(=O)n(C[C@@H](O)CO)cnc21 [TAK-733] |  |  |  |  |  |  | 7.40 | 5.85 | CC50 ([5]; CC50): 45000 nM; pEC50 [3, 16]: > 8.30 |
| O=C(Nc1ccc(-c2ccnc(Nc3ccc(N4CCOCC4)cc3)n2)cc1)C1CCCN1 (stereo not shown) [XL019] |  |  |  |  | 26700 nM | 6.29 |  |  | pEC50 [1, 10]: 6.03; pEC50 [4, 13]: 6.00 |

Reference: publication PMC11808136, “Screening and identification of host signaling pathways for alleviating influenza-induced production of pro-inflammatory cytokines, IP-10, IL-8, and MCP-1, using a U937 cell-based influenza model” (Frontiers in Microbiology, 2025)
